US5543496A, “Cyclic bradykinin antagonist peptides” (Scios Nova Inc., priority 1994, dated 1996)
Positions of bridges follow the written chain, without caps; N, C: chain ends. Non-standard residues stand in square brackets, D forms with d. Residues, ends and D or L forms follow the SMILES beside them. Oic = O=C(O)[C@@H]1C[C@@H]2CCCC[C@@H]2N1; dTic = O=C(O)[C@H]1Cc2ccccc2CN1

Experiments:
[1] = biological target: T1, bradykinin receptors on intestinal (ileal longitudinal) smooth muscle (Cavia porcellus, UniProt O70526); experiment: Bradykinin antagonist activity on guinea pig ileal longitudinal smooth muscle (Schild analysis); format: cell-based; conditions: antagonism of bradykinin-induced contraction, 5 min exposure, read-out: pA2 (converted)
T1 construct: The longitudinal muscle was separated from the underlying circular muscle; from tissue; host or cells: guinea pig ileal longitudinal smooth muscle strips in tissue bath
T1 sequence (O70526 1-372): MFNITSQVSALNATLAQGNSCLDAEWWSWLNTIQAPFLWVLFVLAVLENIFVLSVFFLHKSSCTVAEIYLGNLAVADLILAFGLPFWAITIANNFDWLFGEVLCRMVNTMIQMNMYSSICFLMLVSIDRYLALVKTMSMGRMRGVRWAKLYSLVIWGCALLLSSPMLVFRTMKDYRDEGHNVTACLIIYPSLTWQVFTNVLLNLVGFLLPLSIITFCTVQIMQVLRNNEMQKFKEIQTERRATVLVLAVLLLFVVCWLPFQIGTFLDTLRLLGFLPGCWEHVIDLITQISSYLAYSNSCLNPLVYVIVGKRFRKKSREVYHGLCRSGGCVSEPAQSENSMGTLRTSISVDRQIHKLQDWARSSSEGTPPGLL
Procedure: Guinea pig intestine was removed and placed in a Petri dish containing Tyrodes solution and cut into 3-4 cm segments. The longitudinal muscle was separated from the underlying circular muscle using a cotton applicator (Paton and Zar, J. Physiol., (1968), 194:13. Muscle strips were connected to isometric force-displacement transducers (Grass or Gould) coupled to a physiograph and placed in tissue baths containing Tyrode's solution at 37° C. Each preparation was suspended under a resting tension of 2 g.
After equilibration of the tissues, appropriate volumes of bradykinin solutions were cumulatively added to the 10 mL tissue baths to increase the concentration of bradykinin in the bath step-by-step without washing out after each single dose. Higher concentrations were added only after the preceding contraction had reached a steady value. […] Antagonism of badykinin responses in the presence of antagonist were determined by repeating the cumulative addition procedure for bradykinin after the tissue has been exposed to the antagonist for 5 minutes. Three or four different concentrations of antagonist are studied sequentially in the same preparations. Responses were expressed as a percentage of the maximum contraction elicited by bradykinin in the absence of antagonist. pA2 values were calculated by Schild analysis.

bradykinin receptor = biological target: T2, bradykinin receptor (Cavia porcellus, UniProt O70526); experiment: 3H-Bradykinin binding assay, guinea pig ileum membranes; conditions: displacement of 3H-bradykinin, terminal ileum homogenate of male Hartley guinea pigs, 90 min ambient temperature
T2 construct: from tissue; host or cells: guinea pig terminal ileum, washed membrane homogenate
T2 sequence (O70526 1-372): T1 sequence (O70526 1-372)
Procedure: Binding of ^3 H-Bradykinin was performed using the method of D. C. Manning, R. Vavrek, J. M. Stewart, and S. H. Snyder, J. Pharmacol. Exp. Ther., (1986), 237, 504. The tissues used in the binding assay were terminal ileum from male Hartley guinea pigs (150-350 g). After dissection, tissues were placed in 20 vol of ice-cold buffer A (25 mM TES containing 0.2 g/L of 1,10-phenanthroline adjusted of pH 6.8 with ammonium hydroxide) and homogenized using a Ploytron Tissumizer at setting 6 for 15 sec. The homogenate was centrifuged at 50,000×g for 10 min, the supernatant discarded, and the pellet resuspended in ice-cold buffer A by homogenization with the Polytron. Each tissue was homogenized and centrifuged three times. The final pellet was resuspended in buffer A containing bovine serum albumin (1 g/L) and Bacitracin (0.14 g/L) to a final volume of 170 mL/g of the original tissue weight. […] Filters were dissolved in Ready-Safe Fluor (Beckman) for at least 90 min before quantitation by liquid scintillation spectrometry. Kd values were determined using saturation binding and analysis by EBDA (G. A. MacPherson, J. Pharmacol. Methods, (1985), 213), followed by LIGAND (P. J. Munson, D. Rodbard, Anal. Biochem., (1980), 220). Ki values were determined using competitive analysis followed by EBDA and LIGAND. […]

[2] = anesthetized rat, intra-aortic vs intravenous administration; cited from earlier work
[3] = cited from earlier work

For `N=C(N)NCCC[C@@H](N)C(=O)N[C@@H](CCCNC(=N)N)C(=O)N[C@H]1CSSC[C@@H](C(=O)N[C@@H](CO)C(=O)N2Cc3ccccc3C[C@@H]2C(=O)N2[C@H](C(=O)N[C@@H](CCCNC(=N)N)C(=O)O)C[C@@H]3CCCC[C@@H]32)NC(=O)CNC(=O)[C@@H]2CCCN2C1=O` [drawing 26] (H-[dR]RCPGCS[dTic][Oic]R-OH; disulfide 3-6), the Kb [1] was 251 nM.

In the case of `N=C(N)NCCC[C@@H](N)C(=O)N[C@@H](CCCNC(=N)N)C(=O)N[C@H]1CSSC[C@@H](C(=O)N[C@@H](CO)C(=O)N2Cc3ccccc3C[C@@H]2C(=O)N2[C@H](C(=O)N[C@@H](CCCNC(=N)N)C(=O)O)C[C@@H]3CCCC[C@@H]32)NC(=O)CNC(=O)[C@@H]2CCCN2C1=O` [drawing 23] (H-[dR]RCPGCS[dTic][Oic]R-OH; disulfide 3-6), the Ki (bradykinin receptor) is reported as 1.5 ± 0.1 nM.

Compound `NC(N)=NCCC[C@@H](N)C(=O)N[C@@H](CCCN=C(N)N)C(=O)N[C@H]1CSSC[C@@H](C(=O)N2Cc3ccccc3C[C@@H]2C(=O)N2[C@H](C(=O)N[C@@H](CCCN=C(N)N)C(=O)O)C[C@@H]3CCCC[C@@H]32)NC(=O)[C@H](Cc2ccccc2)NC(=O)CNC(=O)[C@@H]2CCCN2C1=O` (H-[dR]RCPGFC[dTic][Oic]R-OH; disulfide 3-7) has a Ki (bradykinin receptor) of 14.8 ± 0.34 nM.

For “Bradykinin (RPPGFSPFR; Bradykinin; UniProt P01042 381-389, looked up) [nonapeptide hormone, native agonist]”, the “destruction on a single passage through the pulmonary circulation” value [2] is given as 98-99% and the “half life in the systemic circulation” value [3] is given as “less than 30 seconds”.
